Literature values in patent US20250170128A1, “Obicetrapib and SGLT2 Inhibitor Combination” (NE[…] B.V. (Dutch Chamber of Commerce No. 5597 1946), priority 2021, published 2025).

Tests used:
[1] = target: T1, CETP (Homo sapiens, UniProt P11597); conditions: repeated daily dosages (once a day) as low as 2.5 mg
T1 construct: CETP is a plasma protein secreted primarily by liver and adipose tissue
T1 sequence (P11597 18-493): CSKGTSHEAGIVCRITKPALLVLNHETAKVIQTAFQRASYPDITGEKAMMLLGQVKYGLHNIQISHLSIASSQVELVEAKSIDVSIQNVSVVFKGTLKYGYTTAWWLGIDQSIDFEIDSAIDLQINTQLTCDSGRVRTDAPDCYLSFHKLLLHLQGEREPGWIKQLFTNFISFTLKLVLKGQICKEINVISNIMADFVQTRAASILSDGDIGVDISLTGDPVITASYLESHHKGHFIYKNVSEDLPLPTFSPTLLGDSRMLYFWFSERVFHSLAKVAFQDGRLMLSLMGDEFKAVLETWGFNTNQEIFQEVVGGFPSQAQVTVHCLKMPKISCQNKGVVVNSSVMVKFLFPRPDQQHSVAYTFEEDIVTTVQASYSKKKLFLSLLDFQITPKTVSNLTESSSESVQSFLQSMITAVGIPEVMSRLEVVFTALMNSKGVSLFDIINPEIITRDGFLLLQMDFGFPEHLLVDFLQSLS

[2] = clinical studies

Question: With `CCOC(=O)N1c2ccc(C(F)(F)F)cc2[C@@H](N(Cc2cc(C(F)(F)F)cc(C(F)(F)F)c2)c2ncc(OCCCC(=O)O)cn2)C[C@H]1CC` [compound of Formula (I), (2R,4S)-4-{[3,5-bis(trifluoromethyl)benzyl]-[5-(3-carboxypropoxy)pyrimidin-2-yl]amino}-2-ethyl-6-trifluoromethyl-3,4-dihydro-2H-quinoline-1-carboxylic acid ethyl ester] as the compound, how does the CETP inhibition [1] read?
Answer: The CETP inhibition was “near complete CETP-inhibition”.

Question: What about the serious side effects [2] of the same compound?
Answer: Its serious side effects is “does not lead to serious side effects”.

Question: What about the tolerability [2] of the same compound?
Answer: Its tolerability is “well tolerated”.
